Assay results published in patent US20080220416A1, “Compositions for Inhibiting Cell Growth and Inducing Apoptosis in Cancer Cells and Methods of Use Thereof” (THE BOARD OF TRUSTEES OF THE UNIVERSITY OF ILLINOI, priority 2004, published 2008).
Square brackets hold non-standard residues; d marks the D form. Peptide text beside a SMILES is read from it. * marks the point of attachment. Nle = CCCC[C@H](N)C(=O)O; Cbz = O=C(OCc1ccccc1)*

Tests used:
[1] = test system: RJ002L melanoma cells; assay: Dosing study versus chemotherapeutic agents, killing of RJ002L melanoma cells; type: cell-based, human
Experimental: An initial dosing study comparing z-Leu-Leu-Nle-CHO against three different chemotherapeutic agents (i.e., adriamycin, etoposide, and cisplatin) was performed to evaluate the relative effectiveness of z-Leu-Leu-Nle-CHO in killing melanoma cells. In agreement with a previous report by Soengas, M. S. et al., 2001, Nature 409.207-211, SK-MeI-28 cells, carrying a mutated p53, were relatively resistant to killing by adriamycin, as well as to killing by other chemotherapeutic agents. For SK-MeI-28 melanoma cells, the maximal apoptotic response for adriamycin, etoposide, cisplatin, and z-Leu-Leu-Nle-CHO was 12.0%, 2.6%, 4.0%, and 29.4%, respectively. For RJ002L melanoma cells, the maximal apoptotic response for adriamycin, etoposide, cisplatin, and z-Leu-Leu-Nle-CHO was 23.9%, 12.7%, 3.4%, and 45.7%, respectively.

[2] = test system: T47D:C42 breast cancer cells; assay: z-Leu-Leu-Nle-CHO plus Paclitaxel, growth inhibition of T47D:C42 cells; type: cell-based, human; conditions: 0-0.8 μM with Paclitaxel, 48 h
Experimental: Three different types of breast cancer cells were contacted with varying concentrations of z-Leu-Leu-Nle-CHO (0-0.8 μM) and the mitotic poison Paclitaxel (0.01-1 μM). MDA-MB231 cells were obtained from ATCC (Rockville, Md.). T47D:C42 and T47D:A18 cells were a kind gift of Debra Tonetti (University of Illinois-Chicago). MDA-MB231 cells were cultured in DMEM medium with 10% FBS. T47D:C42 and T47D:A18 cells were propagated in RPMI 1640 with 10% FBS, 100 μM non-essential amino acid and 6 ng/ml insulin. Gamma-secretase inhibitor z-Leu-Leu-Nle-CHO (Calbiochem 565750) was dissolved in DMSO, aliquoted and stored at −80° C. Paclitaxel (Sigma, St. Louis Mo.) was dissolved in DMSO, aliquoted and stored at −80° C.
To determine whether z-Leu-Leu-Nle-CHO treatment potentiates the effect of Paclitaxel on human breast cancer cells, MDA-MB231, T47D:C42 and T47D:A18 cells were treated for 48 h with 0-0.8 μM z-Leu-Leu-Nle-CHO and various concentrations of Paclitaxel (0.008-1 μM) Following the z-Leu-Leu-Nle-CHO and Paclitaxel treatment, the cells were tested for growth inhibition as described above in Example 13.

[3] = test system: normal human melanocytes; assay: Apoptosis and cell cycle of normal human melanocytes treated with z-Leu-Leu-Nle-CHO; type: cell-based
Experimental: The effect of z-Leu-Leu-Nle-CHO on apoptosis was tested in vitro using normal human melanocytes and several melanoma cell cultures. Prior to testing, cutaneous (C8161, SK-MeI-28, SK-MeI-100, SK-MeI-5, C81-61), uveal or ocular (MUM2B, MUM2C, OCM-1A), and pulmonary metastases (RJ002L) melanoma cell lines were maintained in RPMI supplemented with 10% FBS. Normal human melanocytes were isolated from neonatal foreskins as previously described (Qin J et al., 2004, Mol Cancer Ther 3:895-902) and cultured with medium 154 containing growth supplements (Cascade Biologics, Portland, Oreg.).
To assess the effect of z-Leu-Leu-Nle-CHO on the cell lines, the cells were grown in suitable culture media. Highly proliferating cells (i.e., cells that had reached approximately 30% confluency) were exposed to z-Leu-Leu-Nle-CHO as described below. […]
Following treatment with z-Leu-Leu-Nle-CHO, the melanoma and melanocyte cell cultures were assayed for apoptotic cells using the APO TARGET Annexin V FITC staining kit (Biosource, Camarillo, Calif.) according to the manufacturer's instructions followed by flow cytometric analysis using FACScaliber (Becton Dickinson, Palo Alto, Calif.) as described in Qin, J. et al., 2001, Nat Med 7:385-386. In some cases, cell cycle and apoptosis analysis was measured using propidium iodide staining and flow cytometry as described. […]

[4] = test system: Notch-1; assay: Notch-1 cleavage in CaSki cells (Western blot N^TM, N^IC); type: cell-based, human; conditions: 0-5 μM, 24 h
Experimental: The CaSki human cervical cancer cells were incubated for 24 h with various concentrations (0-5 μM) of the dual inhibitor z-Leu-Leu-Nle-CHO (Calbiochem) (FIG. 13A). The cells were then collected and assayed for Notch-1 and Notch-4 expression by Western blotting. Immunoblotting was performed using antibodies to the transmembrane portion of Notch-1 (N^TM) (Santa Cruz Biotechnology (Santa Cruz, Calif.)), or the intracellular portion of Notch-1 (N^IC) (Abcam, Inc. (Cambridge, Mass.)). Secondary anti-goat, anti-rnouse, anti-rabbit and anti-rat antibodies (IgG-HRP) were purchased from Vector Laboratories (Burlingame, Calif.), Santa Cruz Biotechnology and Amersham Biosciences. For Western blot analysis, equal amounts of protein extracted from each sample (20 μg) were loaded into pre-cast 7% NuPAGE Tris-acetate gels or 4-12% NuPAGE Bis-tris gels (Invitrogen). Proteins were separated by SDS-PAGE and transferred to polyvinylidene difluoride membranes (Bio-Rad, Hercules, Calif.) using Invitrogen's buffering system. The membranes were incubated with the indicated primary antibodies, washed, and visualized by incubation with horseradish peroxidase-conjugated secondary antibodies and chemiluminescent reagents (Roche Diagnostics Corporation, Indianapolis, Ind.).

[5] = test system: NOXA; assay: NOXA in whole cell protein extracts of subcutaneous C8161 tumors; type: in vivo, Nude mice; conditions: 2.5 mg/kg; versus PBS
Experimental: Initially, 1×10^6 aggressive melanoma cells (C8161) (ATCC, Rockville, Md.) were injected subcutaneously in Nude (nulnu) mice (6-7 weeks old; Harlan, Indianapolis, Ind.) on day 0, and the tumors were allowed bearing groups (5 mice/group) and injected with either (a) PBS as control; (b) bortezomib at 1.25 mg/kg; or (c) bortezomib at 2.5 mg/kg. Treatment began on day 8 when tumors were palpable and injected four times peri-tumorally. On day 20, mice were euthanized and tumors dissected from surrounding tissue and weighted. […] Expanding the in vitro studies to in vivo studies, subcutaneous tumors produced in Nude mice (as described above in Example 7) were tested to detect NOXA using whole cell protein extracts as described above.

| Compound | maximal apoptotic response [1] [%] | effect on Paclitaxel cell growth inhibition [2] | cell cycle effect ([3]; 10 μM for 24 h) | induction of apoptosis ([3]; MC004, MC007, 1-10 μM for 18 h) | cleaved and transmembrane Notch-1 [4] | NOXA in treated tumors [5] |
| --- | --- | --- | --- | --- | --- | --- |
| CCCC[C@@H](C=O)NC(=O)[C@H](CC(C)C)NC(=O)[C@H](CC(C)C)NC(=O)OCc1ccccc1 [z-Leu-Leu-Nle-CHO, N-benzyloxycarbonyl-leucyl-leucyl-norleucinal] (Cbz-Leu-Leu-[Nle]-aldehyde) | 45.7 | potentiated the effects of Paclitaxel on cell growth inhibition | induce a G2/M growth arrest | did not significantly induce apoptosis | dose-dependent reduction in cleaved Notch-1 |  |
| CC(C)C[C@H](NC(=O)[C@H](Cc1ccccc1)NC(=O)c1cnccn1)B(O)O [bortezomib, N-(2-pyrazine)carbonyl-L-phenylalanine-L-leucine boronic acid] |  |  |  |  |  | did induce NOXA in these treated tumors |
